Holding throughout (assay): Modified disk diffusion method (chemicals)
What all share (type): cell-based

The subject of one assay is Fusarium oxysporum. The following applies: disc diffusion on Potato Dextrose Agar, 72 hours at 25±1 °C, PC = nystatin 30 μg/disc. The method, then: (§1) Modified disk diffusion method: Standard NCCLS disc diffusion method was used upon being modified in order to determine the antimicrobial activity of CG, T and ZP on each microorganism that is being tested. The 100 μl solution including 10^8 cfu/ml bacteria, 10^6 cfu/ml yeast and 10^4 spor/ml fungi was prepared with fresh cultures and inoculated with spreading method on Nutrient Agar (NA), Sabouraud Dextrose Agar (SDA) and Potato Dextrose Agar (PDA), respectively. 20 μl of sterile water was dropped on the empty discs, and was immersed into powder triclosan. 20 μl of chlorhexidine gluconate and zinc pyrithione were drawn and impregnated to the empty discs and placed on the inoculated petri dishes. Empty discs with 20 μl drop of sterile water were used as negative control. Ofloxacin (10 μg/disc) and nystatin (30 μg/disc) were used as positive control for bacteria and fungi, respectively. The petri dishes, which were inoculated and on which modified disc diffusion method was applied, were incubated for 24 hours for bacteria and 48 hours for yeasts at 36±1 ° C., and for 72 hours for fungi at 25±1 ° C. […] All tests were repeated at least twice.
A general note: In agar diffusion tests the substance spreads into inoculated agar from a disc or well.

For another assay, the system named is Candida glabrata. The conditions noted are these: disc diffusion on Sabouraud Dextrose Agar, 48 hours at 36±1 °C, PC = nystatin 30 μg/disc. As to the method: as §1
Another assay concerns Staphylococcus aureus. The conditions noted are these: disc diffusion on Nutrient Agar, 24 hours at 36±1 °C, PC = ofloxacin 10 μg/disc. The method, then:
as §1

The test system of assay [1] is Vancomycin-resistant Enterococcus (VRE). The conditions noted are these: disc diffusion on Nutrient Agar, 24 hours at 36±1 °C, PC = ofloxacin 10 μg/disc. As to the method:
as §1

The subject of assay [2] is Methicillin-resistant Staphylococcus aureus (MRSA). The conditions noted are these: disc diffusion on Nutrient Agar, 24 hours at 36±1 °C, PC = ofloxacin 10 μg/disc. The method, then: as §1
For a further assay, the system named is Candida albicans. The conditions noted are these: disc diffusion on Sabouraud Dextrose Agar, 48 hours at 36±1 °C, PC = nystatin 30 μg/disc. As to the method: as §1
For a further assay, the system named is Aspergillus spp. The conditions noted are these: disc diffusion on Potato Dextrose Agar, 72 hours at 25±1 °C, PC = nystatin 30 μg/disc. As to the method:
as §1

A further assay deals with Escherichia coli. The conditions noted are these: disc diffusion on Nutrient Agar, 24 hours at 36±1 °C, PC = ofloxacin 10 μg/disc. The method, then: as §1
The next assay has as its system Pseudomonas aeruginosa. The following applies: disc diffusion on Nutrient Agar, 24 hours at 36±1 °C, PC = ofloxacin 10 μg/disc. The method, then: as §1
A further assay concerns Botrytis cinerea. The conditions noted are these: disc diffusion on Potato Dextrose Agar, 72 hours at 25±1 °C, PC = nystatin 30 μg/disc. As to the method:
as §1

A further assay deals with Penicillium spp. The conditions noted are these: disc diffusion on Potato Dextrose Agar, 72 hours at 25±1 °C, PC = nystatin 30 μg/disc. As to the method: as §1

As for `N=C(NCCCCCCNC(=N)NC(=N)Nc1ccc(Cl)cc1)NC(=N)Nc1ccc(Cl)cc1.O=C(O)[C@H](O)[C@@H](O)[C@H](O)[C@H](O)CO.O=C(O)[C@H](O)[C@@H](O)[C@H](O)[C@H](O)CO` [CG, Chlorhexidine gluconate], the “Antimicrobial activity (inhibition zone)” value (with Fusarium oxysporum; in the assay with Candida glabrata; in the assay on Staphylococcus aureus; in assay [1]; in [2]; in the assay with Candida albicans) was “+” throughout. Further, the “Antimicrobial activity (inhibition zone)” value in the assay on Aspergillus spp., with Escherichia coli, with Pseudomonas aeruginosa, in the assay on Botrytis cinerea and in the assay on Penicillium spp. was “+” each time.
`Oc1cc(Cl)ccc1Oc1ccc(Cl)cc1Cl` [T, Triclosan]: the “Antimicrobial activity (inhibition zone)” value with Fusarium oxysporum is “−”; with Candida glabrata, “−”; in the assay with Staphylococcus aureus, “+”; in assay [1], “+”; in assay [2] it was “+”; in the assay on Candida albicans, “−”. Further, the “Antimicrobial activity (inhibition zone)” value is recorded as “−” with Aspergillus spp.; “+” with Escherichia coli; “+” with Pseudomonas aeruginosa; “−” in the assay on Botrytis cinerea; “−” in the assay with Penicillium spp..
On to Zinc Pyrithione [ZP], for which the “Antimicrobial activity (inhibition zone)” value (in the assay on Fusarium oxysporum; in the assay with Candida glabrata; in the assay on Staphylococcus aureus; in [1]; in assay [2]; with Candida albicans) was “+” throughout. The “Antimicrobial activity (inhibition zone)” value in the assay on Aspergillus spp., in the assay on Escherichia coli, in the assay on Pseudomonas aeruginosa, with Botrytis cinerea and in the assay on Penicillium spp. was “+” throughout.

Source of the values: patent US20190075791A1, “ANTIMICROBIAL SURFACE COATING MATERIAL” (YEDITEPE UNIVERSITESI, priority 2015, published 2019).
